Assay results published in patent US9718825B2, “N-(4-(azaindazol-6-yl)-phenyl)-sulfonamides and their use as pharmaceuticals” (priority 2013, dated 2017).
Where two headings read alike, the source gives them in different places.

How the values were obtained:
[1] = tested on: collagen type X (Col10a1) expression in mouse chondrogenic ATDC5 cells; assay: Chondrocyte hypertrophic differentiation in mouse chondrogenic ATDC5 cells (collagen type X expression); assay type: cell-based; conditions: Col10a1 expression by quantitative real-time PCR after two weeks of cell culture; read-out: IC50 values for the inhibition of collagen type X expression in mouse chondrogenic ATDC5 cells
Description: D) Determination of the effect on chondrocyte hypertrophic differentiation in mouse chondrogenic ATDC5 cells
The ATDC5 cell assay was used as in vitro model to determine the effects of the compounds of the invention on chondrocyte hypertrophic differentiation by monitoring the expression levels of collagen type X (Col10a1) as specific marker of chondrocyte hypertrophy.
Background: ATDC5 cells are a clonal mouse embryonic cell line derived from multipotent AT805 teratocarcinoma cells (Atsumi, T. et al., A chondrogenic cell line derived from a differentiating culture of AT805 teratocarcinoma cells, Cell Differ. Dev. 1990, 30, 109-116). The cells can undergo insulin-dependent chondrogenic cell differentiation entailing distinct differentiation stages starting from an undifferentiated, subconfluent stage, a condensation stage, a cartilage nodule formation stage and a calcification stage within 45 days of in vitro culture. Chondrogenic differentiation can be shown by measuring the expression of the cartilage main collagen (Col2a1) and aggrecan (AGC1) and glycosaminoglycan-staining with Alcian Blue within two weeks after insulin-triggered differentiation, and hypertrophic differentiation can be monitored by the expression of collagen type X (Col10a1), a specific marker of chondrocyte hypertrophy within 21 days of in vitro culture. (Shukunami, C. et al., Chondrogenic Differentiation of Clonal Mouse Embryonic Cell Lne ATDC5 In Vitro: Differentiation-dependent Gene Expression of Parathyroid Hormone (PTH)/PTH-related Peptide Receptor, J. Cell Biol. 1996, 133, 457-468). Growth factor BMP-2 is known to stimulate cell differentiation and can stimulate early and late-phase ATDC5 differentiation (Shukunami, C. et al., Sequential Progression of the Differentiation Program by Bone Morphogenetic Protein-2 in Chondrogenic Cell Line ATDC5, Exp. Cell Res. 1998, 241, 1-11). Thyroid hormone triiodothyronine (T3) promotes hypertrophic differentiation of growth plate chondrocytes (Robson, H. et al., Thyroid Hormone Acts Directly on Growth Plate Chondrocytes to Promote Hypertrophic Differentiation and Inhibit Clonal Expansion and Cell Proliferation, Endocrinology 2000, 141, 3887-3897). Addition of BMP2 and T3 can accelerate ATDC5 hypertrophic differentiation leading to the strong induction Col10a1 expression between 10-14 days. SGK-inhibitors were added to differentiating ATDC5 cells for 14 days and Col10a1 gene expression was quantified to determine effects on chondrocyte hypertrophic differentiation.
Cell assay description: ATDC5 cells were maintained in 300 cm^2 tissue culture flasks in DMEM/Ham's F12+5% FCS supplemented with 10 μg/ml human transferrin, 30 nM sodium selenite, 50 μg/ml kanamycin and grown at 37° C. in 5% CO2 in 95% air. To initiate cell differentiation, 9.9×10^4 cells were plated in 24 well plates and grown for 2 days. Medium was exchanged with DMEM/Ham's F12+5% FCS supplemented with 10 μg/ml human transferrin, 30 nM sodium selenite, 50 μg/ml ascorbic acid and 1 μg/ml BMP2. The assay was run in triplicates, compounds were added in […], and medium changed every 2-3 days including supplementation of compound. At day 7 after initiation of cell differentiation, 1 μM T3 was used as additional supplement in the cell culture.
After two weeks of cell culture, RNA was isolated and converted to cDNA for determination of gene expression by quantitative real-time PCR. Cells were lysed in 600 μl of RLT-buffer (Qiagen) and total RNA was isolated using the RNA-easy Mini RNA isolation Kit (Qiagen) which was run on a Qiacube system (Qiagen) according to the supplier's instructions. RNA was isolated in 30 μl of pure water and the RNA content measured by UV-spectroscopy (Nanodrop, Peqlab). For cDNA synthesis 50 ng total RNA was reverse transcribed using the High Capacity cDNA Reverse Transcription Kit (Applied Biosystems, Product Number 4368813) according to the manufacturer's instructions. […]

[2] = molecular target: recombinant human SGK-1 enzyme (Homo sapiens, UniProt O00141); assay: Enzymatic activity assay: SGK-1 substrate peptide phosphorylation (Caliper lab-chip mobility shift); assay type: biochemical
Chain of recombinant human SGK-1 enzyme (O00141 whole entry, looked up): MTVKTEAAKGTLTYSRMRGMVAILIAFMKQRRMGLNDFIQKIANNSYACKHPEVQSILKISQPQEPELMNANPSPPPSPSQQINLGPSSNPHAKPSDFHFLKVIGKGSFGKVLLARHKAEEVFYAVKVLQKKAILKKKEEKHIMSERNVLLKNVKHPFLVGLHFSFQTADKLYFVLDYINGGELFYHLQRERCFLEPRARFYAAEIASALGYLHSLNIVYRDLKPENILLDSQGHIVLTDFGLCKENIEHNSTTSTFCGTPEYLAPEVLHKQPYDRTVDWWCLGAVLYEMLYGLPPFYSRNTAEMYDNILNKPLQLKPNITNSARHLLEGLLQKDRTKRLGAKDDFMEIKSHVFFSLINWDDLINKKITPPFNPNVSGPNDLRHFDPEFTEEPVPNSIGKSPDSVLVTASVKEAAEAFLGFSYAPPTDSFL

[3] = tested on: SGK-1 dependent phosphorylation of GSK3beta in U2OS cells; assay: SGK-1 dependent phosphorylation of GSK3beta in U2OS cells overexpressing recombinant SGK-1 and GSK3beta; assay type: cell-based, human; conditions: U2OS cells, 6 h incubation, ratio of phosphorylated GSK3beta to total GSK3beta, read-out: IC50 values for inhibition of SGK-1 dependent phosphorylation of GSK3beta in U2OS cells
[4] = peptide substrate 1 μM, ATP 10 μM, 60 min at 37° C., read-out: IC50 values for inhibition of SGK-1 enzymatic activity

SMILES | IC50 [1] [nM] | IC50 [2, 4] [nM] | IC50 [3] [nM] | IC50 ([3]; Homo sapiens) [nM] | IC50 ([2]; read-out: IC50 values for inhibition of SGK-1 enzymatic activity, peptide substrate 1 μM, ATP 10 μM, 60 min at 37° C.) [nM]
O=S(=O)(Nc1ccc(-c2nc(OCCO)c3cn[nH]c3n2)cc1)c1cc(Cl)ccc1F [Example 32] | 280 | 5.1 | – | – | –
O=S(=O)(Nc1ccc(-c2nc(O[C@H]3CC[C@@H](O)CC3)c3cn[nH]c3n2)cc1)c1cc(Cl)ccc1F [Example 79] | 25 | – | – | – | –
Cc1ccc(C#N)c(S(=O)(=O)Nc2ccc(-c3nc(OC4CCC(O)CC4)c4c(C)n[nH]c4n3)cc2)c1 (centres unmarked) [Example 96] | 33 | < 1.5 | 740 | – | –
Cc1n[nH]c2nc(-c3ccc(NS(=O)(=O)c4cc(F)ccc4F)cc3)nc(OC3CCCNC3)c12 (centres unmarked) [Example 321] | 680 | 6.9 | 38 | – | –
Cc1n[nH]c2nc(-c3ccc(NS(=O)(=O)c4cc(Cl)ccc4Cl)cc3)nc(OC3CCCNC3)c12 (centres unmarked) [Example 322] | 8 | 2.6 | 26 | – | –
CC(C)COc1nc(-c2ccc(NS(=O)(=O)c3cc(F)ccc3F)cc2)nc2[nH]nc(N)c12 [Example 328] | 94 | 170 | 150 | – | –
Cc1n[nH]c2nc(-c3ccc(NS(=O)(=O)c4cc(F)ccc4F)cc3)nc(OC3CCN(CCF)CC3)c12 [Example 344] | 16 | 5 | – | – | –
Cc1n[nH]c2nc(-c3ccc(NS(=O)(=O)c4cc(Cl)ccc4Cl)cc3)nc(OC3CCN(C(C)C)CC3)c12 [Example 351] | 43 | 3.8 | – | – | –
Cc1ccc(F)c(S(=O)(=O)Nc2ccc(-c3nc(OC4CCN(C(C)C)CC4)c4c(C)n[nH]c4n3)cc2)c1 [Example 353] | 21 | 3.8 | – | – | –
COc1ccc(F)c(S(=O)(=O)Nc2ccc(-c3nc(OC4CCN(C(C)C)CC4)c4c(C)n[nH]c4n3)cc2)c1 [Example 357] | 61 | 3.6 | – | – | –
Cc1n[nH]c2nc(-c3ccc(NS(=O)(=O)c4cc(Cl)ccc4Cl)cc3)nc(OCCCO)c12 [Example 378] | 57 | 5.8 | – | – | –
Cc1ccc(C#N)c(S(=O)(=O)Nc2ccc(-c3nc(OCCCO)c4c(C)n[nH]c4n3)cc2)c1 [Example 380] | 120 | 12 | – | – | –
Cc1n[nH]c2nc(-c3ccc(NS(=O)(=O)c4cc(Cl)ccc4F)cc3)nc(OCCCO)c12 [Example 391] | 120 | 9.6 | – | – | –
COCCCN1CCC(Oc2nc(-c3ccc(NS(=O)(=O)c4cc(F)ccc4F)cc3)nc3[nH]ncc23)CC1 [Example 394] | 290 | 120 | – | – | –
COCCCN1CCC(Oc2nc(-c3ccc(NS(=O)(=O)c4cc(F)ccc4F)cc3)nc3[nH]nc(C)c23)CC1 [Example 397] | 92 | 8.2 | – | – | –
Cc1n[nH]c2nc(-c3ccc(NS(=O)(=O)c4cc(F)ccc4F)cc3)nc(OC3CCN(C4CCC4)CC3)c12 [Example 398] | 7.2 | 25 | – | – | –
CCN1CCCC(Oc2nc(-c3ccc(NS(=O)(=O)c4cc(Cl)ccc4F)cc3)nc3[nH]nc(C)c23)C1 (centres unmarked) [Example 418] | 30 | 40 | – | – | –
CCN1CCCC(Oc2nc(-c3ccc(NS(=O)(=O)c4cc(Cl)ccc4Cl)cc3)nc3[nH]nc(C)c23)C1 (centres unmarked) [Example 422] | 110 | 40 | – | – | –
CCN1CCCC(Oc2nc(-c3ccc(NS(=O)(=O)c4cc(OC)ccc4F)cc3)nc3[nH]nc(C)c23)C1 (centres unmarked) [Example 424] | 62 | 13 | – | – | –
CCOc1nc(-c2ccc(NS(=O)(=O)c3cc(Cl)ccc3Cl)cc2)nc2[nH]nc(C)c12 [Example 426] | 60 | 11 | – | – | –
O=S(=O)(Nc1ccc(-c2nc(OC3CCC(O)CC3)c3cn[nH]c3n2)cc1F)c1cc(Cl)ccc1Cl (centres unmarked) [Example 439] | 44 | 2.5 | 110 | – | –
O=S(=O)(Nc1ccc(-c2nc(OC3CCC(O)CC3)c3cn[nH]c3n2)cc1F)c1cc(Cl)ccc1F (centres unmarked) [Example 440] | 81 | < 1.5 | 240 | – | –
CCOc1nc(-c2ccc(NS(=O)(=O)c3cc(Cl)c(F)cc3F)cc2)nc2[nH]nc(N)c12 [Example 451] | 10 | 0.57 | – | – | –
Cc1ccc(C#N)c(S(=O)(=O)Nc2ccc(-c3ncc4c(N)n[nH]c4n3)cc2)c1 [Example 453] | 550 | 1.6 | 2100 | – | –
Cc1nc(-c2ccc(NS(=O)(=O)c3cc(Cl)ccc3C#N)cc2)nc2[nH]nc(N)c12 [Example 465] | 700 | < 1.5 | 1200 | – | –
Cc1nc(-c2ccc(NS(=O)(=O)c3cc(Cl)ccc3Cl)cc2)nc2[nH]nc(N3CCC4(CC3)COC4)c12 [Example 496] | 140 | 6.2 | 7000 | – | –
COc1cc(-c2ncc3c(C)n[nH]c3n2)ccc1NS(=O)(=O)c1cc(Cl)ccc1Cl [Example 534, 2,5-Dichloro-N-[2-methoxy-4-(3-methyl-1H-pyrazolo[3,4-d]pyrimidin-6-yl)-phenyl]-benzenesulfonamide] | – | – | – | 350 | < 1.5
Nc1n[nH]c2cc(-c3ccc(NS(=O)(=O)c4cc(Cl)sc4Cl)cc3)ncc12 [Example 558] | – | 13 | 520 | – | –
Nc1n[nH]c2cc(-c3ccc(NS(=O)(=O)c4cc(Cl)ccc4F)cc3)ncc12 [Example 559] | – | 19 | 390 | – | –
CC(=O)N1CCC(Oc2nc(-c3ccc(NS(=O)(=O)c4cc(Cl)ccc4F)cc3)cc3[nH]nc(C)c23)CC1 [Example 646] | 340 | 11 | – | – | –
